This note sets out measurements from article PMC3430861, “The pharmacological profile of ELIC, a prokaryotic GABA-gated receptor” (Neuropharmacology, 2012).

SMILES strings stand for the structures.

For this experiment, the target named is T1, ELIC (Dickeya chrysanthemi, UniProt P0C7B7, INS163G).
T1 construct: expressed in transfected cells; host or cells: Xenopus laevis oocytes injected with cRNA
Put plainly: cell-based. Format: cell-based, Erwinia chrysanthemi. The method, then: Xenopus laevis oocyte-positive females were purchased from NASCO (Fort Atkinson, Wisconsin, USA) and maintained according to standard methods.
The ELIC sequence (Genbank accession number POC7B7) was purchased from Genscript as a synthetic gene with optimized codon usage for expression in Escherichia coli. […] Stage V and VI oocytes were injected with 20 ng cRNA, and currents recorded 1–3 days post-injection.

In the case of `N[C@@H](Cc1ccccc1)C(=O)O` [Phenylalanine], the EC50 was above 10 mM. Compound `NCCC(=O)O` [β-alanine] had an EC50 above 10 mM.

For the compound `N[C@@H](Cc1c[nH]c2ccccc12)C(=O)O` [Tryptophan], the EC50 is above 10 mM. On to `N[C@@H](Cc1ccc(O)cc1)C(=O)O` [Tyrosine], for which the EC50 was above 10 mM. `C[C@H](N)C(=O)O` [Alanine] returned an EC50 above 10 mM. The compound `C[C@@H](O)[C@H](N)C(=O)O` [Threonine] returned an EC50 above 10 mM. Regarding `O=C(O)[C@@H]1CCC(O)=N1` [pyroglutamate], the EC50 is above 10 mM. With `NCCCC[C@H](N)C(=O)O` [Lysine], the EC50 was above 10 mM. In turn, `N[C@@H](Cc1c[nH]cn1)C(=O)O` [Histidine] had an EC50 above 10 mM.

Take `O=C(O)[C@@H]1CCCN1` [Proline]: the EC50 is above 10 mM.

`CC(C)[C@H](N)C(=O)O` [Valine]: the EC50 was above 10 mM. In the case of `N[C@@H](CC(=O)O)C(=O)O` [Aspartate], the EC50 is above 10 mM. Compound `CSCC[C@H](N)C(=O)O` [Methionine] displayed an EC50 above 10 mM. For the compound `NC(=O)C[C@H](N)C(=O)O` [Asparagine], the EC50 is above 10 mM.

Regarding `N[C@@H](CO)C(=O)O` [Serine], the EC50 was above 10 mM.

`NCc1cc(=O)[nH]o1` [muscimol] yielded an EC50 above 10 mM. As to `NC(=O)CC[C@H](N)C(=O)O` [Glutamine], the EC50 was above 10 mM. Compound `N=C(N)NCCC[C@H](N)C(=O)O` [Arginine] had an EC50 above 10 mM. Compound `CC(C)C[C@H](N)C(=O)O` [Leucine] showed an EC50 above 10 mM. The compound `CC[C@H](C)[C@H](N)C(=O)O` [Isoleucine] yielded an EC50 above 10 mM. In turn, `O=C(O)CCC(=O)O` [succinic acid] showed an EC50 above 10 mM. In the case of `O=C1CCCO1` [γ-butyrolactone], the EC50 was above 10 mM.

For `N[C@@H](CCC(=O)O)C(=O)O` [L-glutamate], the EC50 was above 10 mM. On to `N[C@@H](CS)C(=O)O` [Cysteine], for which the EC50 was above 10 mM.
